From PubChem BioAssay (NCI)
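GI50 is the concentration that inhibits growth by half. TGI denotes the concentration required for complete inhibition of growth.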

Tests used:
Test in all cases: NCI tumour cell line growth inhibition, 384-well format
786-0 renal = test system: 786-0 renal
A498 renal = test system: A498 renal
A549 NSCLC = test system: A549 NSCLC
ACHN renal = test system: ACHN renal
BT-549 breast = test system: BT-549 breast
CAKI-1 renal = test system: CAKI-1 renal
CCRF-CEM leukemia = test system: CCRF-CEM leukemia
COLO 205 colon = test system: COLO 205 colon
DU-145 prostate = test system: DU-145 prostate
EKVX NSCLC = test system: EKVX NSCLC
HCC-2998 colon = test system: HCC-2998 colon
HCT-116 colon = test system: HCT-116 colon
HCT-15 colon = test system: HCT-15 colon
HL-60(TB) leukemia = test system: HL-60(TB) leukemia
HOP-62 NSCLC = test system: HOP-62 NSCLC
HOP-92 NSCLC = test system: HOP-92 NSCLC
HS 578T breast = test system: HS 578T breast
HT29 colon = test system: HT29 colon
IGROV1 ovarian = test system: IGROV1 ovarian
K-562 leukemia = test system: K-562 leukemia
KM12 colon = test system: KM12 colon
LOX IMVI melanoma = test system: LOX IMVI melanoma
M14 melanoma = test system: M14 melanoma
MALME-3M melanoma = test system: MALME-3M melanoma
MCF7 breast = test system: MCF7 breast
MDA-MB-435 melanoma = test system: MDA-MB-435 melanoma
MDA-MB-468 breast = test system: MDA-MB-468 breast
MOLT-4 leukemia = test system: MOLT-4 leukemia
NCI-H226 lung = test system: NCI-H226 lung
NCI-H23 lung = test system: NCI-H23 lung
NCI-H322M lung = test system: NCI-H322M lung
NCI-H460 NSCLC = test system: NCI-H460 NSCLC
NCI-H522 lung = test system: NCI-H522 lung
NCI/ADR-RES ovarian = test system: NCI/ADR-RES ovarian
OVCAR-3 ovarian = test system: OVCAR-3 ovarian
OVCAR-4 ovarian = test system: OVCAR-4 ovarian
OVCAR-8 ovarian = test system: OVCAR-8 ovarian
PC-3 prostate = test system: PC-3 prostate
RPMI-8226 leukemia = test system: RPMI-8226 leukemia
RXF 393 renal = test system: RXF 393 renal
SF-268 CNS = test system: SF-268 CNS
SF-295 CNS = test system: SF-295 CNS
SF-539 CNS = test system: SF-539 CNS
SK-MEL-2 melanoma = test system: SK-MEL-2 melanoma
SK-MEL-28 melanoma = test system: SK-MEL-28 melanoma
SK-MEL-5 melanoma = test system: SK-MEL-5 melanoma
SK-OV-3 ovarian = test system: SK-OV-3 ovarian
SN12C renal = test system: SN12C renal
SNB-19 CNS = test system: SNB-19 CNS
SNB-75 CNS = test system: SNB-75 CNS
SW-620 colon = test system: SW-620 colon
TK-10 renal = test system: TK-10 renal
U251 glioblastoma = test system: U251 glioblastoma
UACC-257 melanoma = test system: UACC-257 melanoma
UACC-62 melanoma = test system: UACC-62 melanoma

Structure (SMILES): CN(C)CCN(C)CC(C)(C)C(=O)/C=C/c1ccc(Cl)c(Cl)c1
- GI50 ([…]-0 renal): 1460 nM
- TGI (786-0 renal): 2790 nM
- GI50 (A498 renal): 1450 nM
- TGI (A498 renal): 2770 nM
- GI50 (A549 NSCLC): 1720 nM
- TGI (A549 NSCLC): 3130 nM
- GI50 (ACHN renal): 1570 nM
- TGI (ACHN renal): 2940 nM
- GI50 (BT-549 breast): 1680 nM
- TGI (BT-549 breast): 3060 nM
- GI50 (CAKI-1 renal): 1080 nM
- TGI (CAKI-1 renal): 2290 nM
- GI50 (CCRF-CEM leukemia): 216 nM
- TGI (CCRF-CEM leukemia): 479 nM
- GI50 (COLO 205 colon): 1600 nM
- TGI (COLO 205 colon): 2980 nM
- GI50 (DU-145 prostate): 1600 nM
- TGI (DU-145 prostate): 3000 nM
- GI50 (EKVX NSCLC): 1650 nM
- TGI (EKVX NSCLC): 3080 nM
- GI50 (HCC-2998 colon): 1500 nM
- TGI (HCC-2998 colon): 2840 nM
- GI50 (HCT-116 colon): 1270 nM
- TGI (HCT-116 colon): 2590 nM
- GI50 (HCT-15 colon): 1230 nM
- TGI (HCT-15 colon): 2530 nM
- GI50 (HL-60(TB) leukemia): 161 nM
- TGI (HL-60(TB) leukemia): 309 nM
- GI50 (HOP-62 NSCLC): 1720 nM
- TGI (HOP-62 NSCLC): 3100 nM
- GI50 (HOP-92 NSCLC): 1090 nM
- TGI (HOP-92 NSCLC): 2290 nM
- GI50 (HS 578T breast): 2000 nM
- TGI (HS 578T breast): 3440 nM
- GI50 (HT29 colon): 1440 nM
- TGI (HT29 colon): 2990 nM
- GI50 (IGROV1 ovarian): 1480 nM
- TGI (IGROV1 ovarian): 2810 nM
- GI50 (K-562 leukemia): 1820 nM
- TGI (K-562 leukemia): 3250 nM
- GI50 (KM12 colon): 810 nM
- TGI (KM12 colon): 2060 nM
- GI50 (LOX IMVI melanoma): 1640 nM
- TGI (LOX IMVI melanoma): 3020 nM
- GI50 (M14 melanoma): 1690 nM
- TGI (M14 melanoma): 3080 nM
- GI50 (MALME-3M melanoma): 2050 nM
- TGI (MALME-3M melanoma): 3490 nM
- GI50 (MCF7 breast): 796 nM
- TGI (MCF7 breast): 2050 nM
- GI50 (MDA-MB-435 melanoma): 1360 nM
- TGI (MDA-MB-435 melanoma): 2650 nM
- GI50 (MDA-MB-468 breast): 510 nM
- TGI (MDA-MB-468 breast): 902 nM
- GI50 (MOLT-4 leukemia): 215 nM
- TGI (MOLT-4 leukemia): 459 nM
- GI50 (NCI-H226 lung): 1470 nM
- TGI (NCI-H226 lung): 2790 nM
- GI50 (NCI-H23 lung): 1470 nM
- TGI (NCI-H23 lung): 2840 nM
- GI50 (NCI-H322M lung): 1310 nM
- TGI (NCI-H322M lung): 2600 nM
- GI50 (NCI-H460 NSCLC): 1410 nM
- TGI (NCI-H460 NSCLC): 2780 nM
- GI50 (NCI-H522 lung): 1330 nM
- TGI (NCI-H522 lung): 2620 nM
- GI50 (NCI/ADR-RES ovarian): 1570 nM
- TGI (NCI/ADR-RES ovarian): 2920 nM
- GI50 (OVCAR-3 ovarian): 1350 nM
- TGI (OVCAR-3 ovarian): 2640 nM
- GI50 (OVCAR-4 ovarian): 1510 nM
- TGI (OVCAR-4 ovarian): 2850 nM
- GI50 (OVCAR-8 ovarian): 1300 nM
- TGI (OVCAR-8 ovarian): 2590 nM
- GI50 (PC-3 prostate): 1510 nM
- TGI (PC-3 prostate): 2860 nM
- GI50 (RPMI-8226 leukemia): 319 nM
- TGI (RPMI-8226 leukemia): 667 nM
- GI50 (RXF 393 renal): 1080 nM
- TGI (RXF 393 renal): 2270 nM
- GI50 (SF-268 CNS): 1930 nM
- TGI (SF-268 CNS): 3350 nM
- GI50 (SF-295 CNS): 1560 nM
- TGI (SF-295 CNS): 2940 nM
- GI50 (SF-539 CNS): 1340 nM
- TGI (SF-539 CNS): 2630 nM
- GI50 (SK-MEL-2 melanoma): 292 nM
- TGI (SK-MEL-2 melanoma): 644 nM
- GI50 (SK-MEL-28 melanoma): 1890 nM
- TGI (SK-MEL-28 melanoma): 3310 nM
- GI50 (SK-MEL-5 melanoma): 1190 nM
- TGI (SK-MEL-5 melanoma): 2430 nM
- GI50 (SK-OV-3 ovarian): 1280 nM
- TGI (SK-OV-3 ovarian): 2550 nM
- GI50 (SN12C renal): 1320 nM
- TGI (SN12C renal): 2600 nM
- GI50 (SNB-19 CNS): 1750 nM
- TGI (SNB-19 CNS): 3170 nM
- GI50 (SNB-75 CNS): 2020 nM
- TGI (SNB-75 CNS): 3450 nM
- GI50 (SW-620 colon): 1340 nM
- TGI (SW-620 colon): 2650 nM
- GI50 (TK-10 renal): 1440 nM
- TGI (TK-10 renal): 2750 nM
- GI50 (U251 glioblastoma): 1520 nM
- TGI (U251 glioblastoma): 2870 nM
- GI50 (UACC-257 melanoma): 1450 nM
- TGI (UACC-257 melanoma): 2770 nM
- GI50 (UACC-62 melanoma): 1410 nM
- TGI (UACC-62 melanoma): 2720 nM
